# Earlier results as cited in patent US20220062352A1, “COMPOSITIONS FOR THE TREATMENT OF CONDITIONS” (Demata Therapeutics, LLC, priority 2018, published 2022).
# Tested on: acne vulgaris subjects
compound,measurement,setting,value
"CC(=O)N[C@H]1C(O)O[C@H](CO)[C@@H](O)[C@@H]1O (stereo partly drawn) [NAG, N-acetyl-D-glucosamine]",tolerability versus 10% benzoyl peroxide,acne vulgaris subjects,better tolerated by the subjects than 10% benzoyl peroxide
same,number of acne lesions,over an 8-week period,quickly reduced the number of acne lesions
